Results on 14 molecules are retold here after patent US20080220031A1, “Dermocosmetic Preparations” (BASF Aktiengesellschaft, priority 2005, published 2008).

Data set [1] can be described thus: Oxidation test squalene test (Raman, azo initiator V65). To be noted: 2500 ppm test substance, azo initiator V65, 30 days at 40° C., squalene content by Raman spectrum. The procedure:
3 ml of a 2% strength solution of the azo initiator V65 (from Wako) are introduced together with 2500 ppm of test substance (based on the squalene solution) into 12×100 […] Fiolax test tubes and thoroughly mixed using a laboratory shaker. The samples are then stored open in a through-circulation drying oven for 30 days at 40° C. At intervals of 7 days, the squalene content of the samples is determined by means of the Raman spectrum and chemometric evaluation. The datapoints are documented in an XY graph and the efficiency of the test substance is determined from the slope of the decomposition curves in comparison with a reference sample without test substance. The slope of the reference sample divided by the slope of the test substance sample gives the factor Q_Raman.

The conditions of data set [2]: footnotes 2-4: BASF Technical Information / H. Zweifel; cited from earlier work.
The nature of data set [3]: Solubility of various HAS compounds in Miglyol 812. The data set is classed as physicochemical. To be noted: introduced in portions into 10 g of Miglyol, stirred at room temperature. From the text:
Experimental procedure: The respective MS compound was introduced gradually in small portions into 10 g of Miglyol and in each case stirred at room temperature until it had completely dissolved.

As to `CN1C(C)(C)CC(N(C=O)CCCCCCN(C=O)C2CC(C)(C)N(C)C(C)(C)C2)CC1(C)C`, the “Qraman (slope of reference sample divided by slope of test substance sample)” value in data set [1] was 2.4.

For the molecule `CCCCN(c1nc(NCCCN(CCN(CCCNc2nc(N(CCCC)C3CC(C)(C)N(C)C(C)(C)C3)nc(N(CCCC)C3CC(C)(C)N(C)C(C)(C)C3)n2)c2nc(N(CCCC)C3CC(C)(C)N(C)C(C)(C)C3)nc(N(CCCC)C3CC(C)(C)N(C)C(C)(C)C3)n2)c2nc(N(CCCC)C3CC(C)(C)N(C)C(C)(C)C3)nc(N(CCCC)C3CC(C)(C)N(C)C(C)(C)C3)n2)nc(N(CCCC)C2CC(C)(C)N(C)C(C)(C)C2)n1)C1CC(C)(C)N(C)C(C)(C)C1`, in data set [1], the “Qraman (slope of reference sample divided by slope of test substance sample)” value turned out to be 1.4.

On to `CC1(C)CC(N2CN3C(=O)N4CN(C5CC(C)(C)NC(C)(C)C5)CN5C(=O)N(C2)C3C45)CC(C)(C)N1`, for which the “Qraman (slope of reference sample divided by slope of test substance sample)” value in data set [1] worked out at 1.3. Also, in data set [2], the pKa is 9.8^2).

Take `CN1C(C)(C)CC(N2CN3C(=O)N4CN(C5CC(C)(C)N(C)C(C)(C)C5)CN5C(=O)N(C2)C3C45)CC1(C)C`: the “Qraman (slope of reference sample divided by slope of test substance sample)” value in data set [1] is listed as 2.2.

In the case of `CC(ON1C(C)(C)CC(O)CC1(C)C)c1ccccc1` (stereo not drawn), the “Qraman (slope of reference sample divided by slope of test substance sample)” value in data set [1] was determined as 1.3.

As to `COC(=O)C(CO)ON1C(C)(C)CC(OC)CC1(C)C` (stereo not drawn), in data set [1], the “Qraman (slope of reference sample divided by slope of test substance sample)” value stood at 1.8.

With `CCCCCCCCCCCCC1CC(=O)N(C2CC(C)(C)N(C)C(C)(C)C2)C1=O` (stereo not drawn), in data set [1], the “Qraman (slope of reference sample divided by slope of test substance sample)” value is recorded as 6.2.

As for `CCCCCCCCCCCCC1CC(=O)N(C2CC(C)(C)NC(C)(C)C2)C1=O` (stereo not drawn) [2-Dodecyl-N-(2,2,6,6-tetramethyl-4-piperidinyl)succinimide], the “Solubility in Miglyol 812” value in data set [3] is given as “min. 50%”.

`O=C1O[C@H]([C@@H](O)CO)C(O)=C1O` [Ascorbic acid]: the “Qraman (slope of reference sample divided by slope of test substance sample)” value in data set [1] is on record as 1.2.

As to `CCCCCCCCON1C(C)(C)CC(OC(=O)CCCCCCCCC(=O)OC2CC(C)(C)N(OCCCCCCCC)C(C)(C)C2)CC1(C)C` [Tinuvin 123], the “Qraman (slope of reference sample divided by slope of test substance sample)” value in data set [1] worked out at 1.8.

With `CC1(C)CC(OC(=O)CCCCCCCCC(=O)OC2CC(C)(C)NC(C)(C)C2)CC(C)(C)N1` [Tinuvin ® 770], in data set [3], the “Solubility in Miglyol 812” value is on record as 4.7%.

With `CC1(C)CC(N(C=O)CCCCCCN(C=O)C2CC(C)(C)NC(C)(C)C2)CC(C)(C)N1` [Uvinul ® 4050H], in data set [3], the “Solubility in Miglyol 812” value is reported as “insoluble”.

On to `CCCCCCCCCCCCC1CC(=O)N(C2CC(C)(C)NC(C)(C)C2)C1=O` (stereo not drawn) [drawing 31], for which, in data set [1], the “Qraman (slope of reference sample divided by slope of test substance sample)” value came to 7.1.

As for Tocopherol, in data set [1], the “Qraman (slope of reference sample divided by slope of test substance sample)” value was found to be 1.4.
